Experiments:
Crizotinib = compound: C[C@@H](Oc1cc(-c2cnn(C3CCNCC3)c2)cnc1N)c1c(Cl)ccc(F)c1Cl [Crizotinib]; conditions: max 10 µM
Outline: (§1)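 Cancer cell lines in 1536-well plates (7.5 μl DMEM/F12 or RPMI, 10% FBS) were held 24 hours at 37°C and 5% CO2 and then dosed for 72 hours at a final DMSO of typically 0.2%. Viability was taken from CellTiter-Glo 2.0 luminescence, scaled between blank-well and DMSO-well means. Curves were fitted as two-parameter logistic models with a non-linear mixed effects model, from which the single-agent IC50 was taken.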

Selumetinib = compound: Cn1cnc2c(F)c(Nc3ccc(Br)cc3Cl)c(C(=O)NOCCO)cc21 [Selumetinib]; conditions: max 10 µM
Outline: as §1

SN-38 = compound: CCc1c2c(nc3ccc(O)cc13)-c1cc3c(c(=O)n1C2)COC(=O)[C@]3(O)CC [SN-38]; conditions: max 0.3 µM
Outline: as §1

AZD5991 = compound: Cc1c2c(nn1C)CSCc1cc(n(C)n1)CSc1cc(c3ccccc3c1)OCCCc1c(C(=O)O)n(C)c3c-2c(Cl)ccc13 [AZD5991]; conditions: max 1 µM
Outline: as §1

Paclitaxel = compound: CC(=O)O[C@H]1C(=O)[C@@]2(C)[C@H]([C@H](OC(=O)c3ccccc3)[C@]3(O)C[C@H](OC(=O)[C@H](O)[C@@H](NC(=O)c4ccccc4)c4ccccc4)C(C)=C1C3(C)C)[C@]1(OC(C)=O)CO[C@@H]1C[C@@H]2O [Paclitaxel]; conditions: max 3 µM
Outline: as §1

AZD5153 = compound: COc1nnc2ccc(N3CCC(c4ccc(OCCN5CCN(C)C(=O)[C@H]5C)cc4)CC3)nn12 [AZD5153]; conditions: max 1 µM
Outline: as §1

Trametinib = compound: CC(=O)Nc1cccc(-n2c(=O)n(C3CC3)c(=O)c3c(Nc4ccc(I)cc4F)n(C)c(=O)c(C)c32)c1 [Trametinib]; conditions: max 1 µM
Outline: as §1

Lapatinib = compound: CS(=O)(=O)CCNCc1ccc(-c2ccc3ncnc(Nc4ccc(OCc5cccc(F)c5)c(Cl)c4)c3c2)o1 [Lapatinib]; conditions: max 10 µM
Outline: as §1

Etoposide = compound: COc1cc([C@@H]2c3cc4c(cc3[C@@H](O[C@@H]3O[C@@H]5CO[C@@H](C)O[C@H]5[C@H](O)[C@H]3O)[C@H]3COC(=O)[C@H]23)OCO4)cc(OC)c1O [Etoposide]; conditions: max 10 µM
Outline: as §1

[1] = compound: O=C(Nc1ccc2[nH]nc(-c3ccncc3)c2c1)[C@@H]1CCN(CC(=O)N2CCN(c3ccc(-c4ncccn4)cc3)CC2)C1; conditions: max 5 µM
Outline: as §1

AZD2811 = compound: CCN(CCO)CCCOc1ccc2c(Nc3cc(CC(=O)Nc4cccc(F)c4)[nH]n3)ncnc2c1 [AZD2811]; conditions: max 1 µM
Outline: as §1

Gefitinib = compound: COc1cc2ncnc(Nc3ccc(F)c(Cl)c3)c2cc1OCCCN1CCOCC1 [Gefitinib]; conditions: max 10 µM
Outline: as §1

Doxorubicin = compound: COc1cccc2c1C(=O)c1c(O)c3c(c(O)c1C2=O)C[C@@](O)(C(=O)CO)C[C@@H]3O[C@H]1C[C@H](N)[C@H](O)[C@H](C)O1 [Doxorubicin]; conditions: max 1 µM
Outline: as §1

Olaparib = compound: O=C(c1cc(Cc2n[nH]c(=O)c3ccccc23)ccc1F)N1CCN(C(=O)C2CC2)CC1 [Olaparib]; conditions: max 10 µM
Outline: as §1

Prexasertib = compound: COc1cccc(OCCCN)c1-c1cc(Nc2cnc(C#N)cn2)n[nH]1 [Prexasertib]; conditions: max 1 µM
Outline: as §1

SRA737 = compound: N#Cc1cnc(Nc2cc(NC[C@H]3CNCCO3)c(C(F)(F)F)cn2)cn1 [SRA737]; conditions: max 10 µM
Outline: as §1

Venetoclax = compound: CC1(C)CCC(CN2CCN(c3ccc(C(=O)NS(=O)(=O)c4ccc(NCC5CCOCC5)c([N+](=O)[O-])c4)c(Oc4cnc5[nH]ccc5c4)c3)CC2)=C(c2ccc(Cl)cc2)C1 [Venetoclax]; conditions: max 1 µM
Outline: as §1

Taselisib = compound: Cc1nc(-c2cn3c(n2)-c2ccc(-c4cnn(C(C)(C)C(N)=O)c4)cc2OCC3)n(C(C)C)n1 [Taselisib]; conditions: max 10 µM
Outline: as §1

AZD1390 = compound: CC(C)n1c(=O)n(C)c2cnc3cc(F)c(-c4ccc(OCCCN5CCCCC5)nc4)cc3c21 [AZD1390]; conditions: max 0.3 µM
Outline: as §1

Alisertib = compound: COc1cc(Nc2ncc3c(n2)-c2ccc(Cl)cc2C(c2c(F)cccc2OC)=NC3)ccc1C(=O)O [Alisertib]; conditions: max 10 µM
Outline: as §1

MK-2206 = compound: NC1(c2ccc(-c3nc4ccn5c(=O)[nH]nc5c4cc3-c3ccccc3)cc2)CCC1 [MK-2206]; conditions: max 10 µM
Outline: as §1

AZD7648 = compound: Cc1cc2ncnn2cc1Nc1ncc2c(n1)n(C1CCOCC1)c(=O)n2C [AZD7648]; conditions: max 10 µM
Outline: as §1

Palbociclib = compound: CC(=O)c1c(C)c2cnc(Nc3ccc(N4CCNCC4)cn3)nc2n(C2CCCC2)c1=O [Palbociclib]; conditions: max 10 µM
Outline: as §1

AZD6738 = compound: C[C@@H]1COCCN1C2=NC(=NC(=C2)C3(CC3)[S@](=N)(=O)C)C4=C5C=CNC5=NC=C4 [AZD6738]; conditions: max 10 µM
Outline: as §1

Savolitinib = compound: C[C@@H](c1ccc2nccn2c1)n1nnc2ncc(-c3cnn(C)c3)nc21 [Savolitinib]; conditions: max 1 µM
Outline: as §1

AZD1775 = compound: C=CCn1c(=O)c2cnc(Nc3ccc(N4CCN(C)CC4)cc3)nc2n1-c1cccc(C(C)(C)O)n1 [AZD1775]; conditions: max 3 µM
Outline: as §1

AZD4320 = compound: CN(CC[C@H](CSC1=CC=CC=C1)NC2=C(C=C(C=C2)S(=O)(=O)NC(=O)C3=CC=C(C=C3)N4CCC(CC4)[C@H](C5=CC=CC=C5C6=CC=C(C=C6)Cl)O)S(=O)(=O)C(F)(F)F)CCO [AZD4320]; conditions: max 1 µM
Outline: as §1

AZD8186 = compound: C[C@@H](Nc1cc(F)cc(F)c1)c1cc(C(=O)N(C)C)cc2c(=O)cc(N3CCOCC3)oc12 [AZD8186]; conditions: max 10 µM
Outline: as §1

Carboplatin = compound: C1CC(C1)(C(=O)[O-])C(=O)[O-].N.N.[Pt+2] [Carboplatin]; conditions: max 10 µM
Outline: as §1

Gemcitabine = compound: Nc1ccn([C@@H]2O[C@H](CO)[C@@H](O)C2(F)F)c(=O)n1 [Gemcitabine]; conditions: max 0.3 µM
Outline: as §1

AZD0156 = compound: CN(C)CCCOc1ccc(-c2ccc3ncc4c(c3c2)n(C2CCOCC2)c(=O)n4C)cn1 [AZD0156]; conditions: max 3 µM
Outline: as §1

SG3199 = compound: CC1=CN2[C@@H](C1)C=NC3=CC(=C(C=C3C2=O)OC)OCCCCCOC4=C(C=C5C(=C4)N=C[C@@H]6CC(=CN6C5=O)C)OC [SG3199]; conditions: max 0.001 µM
Outline: as §1

AZD5363 = compound: C1CN(CCC1(C(=O)N[C@@H](CCO)C2=CC=C(C=C2)Cl)N)C3=NC=NC4=C3C=CN4 [AZD5363]; conditions: max 10 µM
Outline: as §1

Dasatinib = compound: CC1=C(C(=CC=C1)Cl)NC(=O)C2=CN=C(S2)NC3=CC(=NC(=N3)C)N4CCN(CC4)CCO [Dasatinib]; conditions: max 2 µM
Outline: as §1

5-Fluorouracil = compound: O=c1[nH]cc(F)c(=O)[nH]1 [5-Fluorouracil]; conditions: max 20 µM
Outline: as §1

Cell Line	IC50, cell viability 72 h (Crizotinib) [µM]	IC50, cell viability 72 h (Selumetinib) [µM]	IC50, cell viability 72 h (SN-38) [µM]	IC50, cell viability 72 h (AZD5991) [µM]	IC50, cell viability 72 h (Paclitaxel) [µM]	IC50, cell viability 72 h (AZD5153) [µM]	IC50, cell viability 72 h (Trametinib) [µM]	IC50, cell viability 72 h (Lapatinib) [µM]	IC50, cell viability 72 h (Etoposide) [µM]	IC50, cell viability 72 h [1] [µM]	IC50, cell viability 72 h (AZD2811) [µM]	IC50, cell viability 72 h (Gefitinib) [µM]	IC50, cell viability 72 h (Doxorubicin) [µM]	IC50, cell viability 72 h (Olaparib) [µM]	IC50, cell viability 72 h (Prexasertib) [µM]	IC50, cell viability 72 h (SRA737) [µM]	IC50, cell viability 72 h (Venetoclax) [µM]	IC50, cell viability 72 h (Taselisib) [µM]	IC50, cell viability 72 h (AZD1390) [µM]	IC50, cell viability 72 h (Alisertib) [µM]	IC50, cell viability 72 h (MK-2206) [µM]	IC50, cell viability 72 h (AZD7648) [µM]	IC50, cell viability 72 h (Palbociclib) [µM]	IC50, cell viability 72 h (AZD6738) [µM]	IC50, cell viability 72 h (Savolitinib) [µM]	IC50, cell viability 72 h (AZD1775) [µM]	IC50, cell viability 72 h (AZD4320) [µM]	IC50, cell viability 72 h (AZD8186) [µM]	IC50, cell viability 72 h (Carboplatin) [µM]	IC50, cell viability 72 h (Gemcitabine) [µM]	IC50, cell viability 72 h (AZD0156) [µM]	IC50, cell viability 72 h (SG3199) [µM]	IC50, cell viability 72 h (AZD5363) [µM]	IC50, cell viability 72 h (Dasatinib) [µM]	IC50, cell viability 72 h (5-Fluorouracil) [µM]
VMRC-RCZ (Kidney Carcinoma)	> 10	> 10	> 0.3	> 1	> 3	> 1	> 1	> 10	> 10	> 5	> 1	> 10	> 1	> 10	> 1	> 10	> 1	> 10	> 0.3	> 10	> 10	> 10	> 10	> 10	> 1	> 3	> 1	> 10	> 10	> 0.3	> 3	> 0.001	> 10	> 2	> 20
NCI-H2731 (Mesothelioma)	> 10	> 10	> 0.3	> 1	1.78	> 1	> 1	> 10	> 10	> 5	> 1	> 10	> 1	> 10	> 1	> 10	> 1	> 10	> 0.3	> 10	> 10	> 10	> 10	> 10	> 1	> 3	> 1	> 10	> 10	> 0.3	> 3	> 0.001	> 10	> 2	> 20
NCCIT (Other Solid Carcinomas)	> 10	> 10	> 0.3	0.891	0.0118	0.0336	> 1	> 10	> 10	> 5	> 1	> 10	> 1	> 10	0.0703	> 10	> 1	1.62	> 0.3	> 10	6.67	> 10	> 10	8.41	> 1	0.561	> 1	> 10	> 10	> 0.3	> 3	> 0.001	8.12	> 2	> 20
SJSA-1 (Osteosarcoma)	> 10	> 10	0.0879	> 1	0.0799	0.533	> 1	> 10	> 10	> 5	> 1	> 10	> 1	> 10	0.156	> 10	> 1	4.81	> 0.3	> 10	> 10	> 10	> 10	> 10	> 1	> 3	> 1	> 10	> 10	0.0821	> 3	> 0.001	> 10	> 2	> 20
NCI-H929 (Plasma Cell Myeloma)	0.982	3.13	0.0131	0.0175	0.00454	0.0134	0.0329	> 10	1.25	0.981	> 1	> 10	0.548	> 10	0.179	> 10	> 1	0.0236	> 0.3	> 10	0.0699	2.27	> 10	5.41	> 1	1.06	> 1	0.728	> 10	0.0121	1.15	> 0.001	0.106	> 2	7.15
